Columns and labels:
hM4 receptors = molecular target: T1, hM4 receptors (Homo sapiens, UniProt P08173); assay: Human M4 PAM pERK assay; type: cell-based; details: CHO cells expressing hM4; with EC20 of acetylcholine (10 nM final)
T1 construct: expressed in transfected cells; host or cells: CHO cells
T1 sequence (P08173 1-479): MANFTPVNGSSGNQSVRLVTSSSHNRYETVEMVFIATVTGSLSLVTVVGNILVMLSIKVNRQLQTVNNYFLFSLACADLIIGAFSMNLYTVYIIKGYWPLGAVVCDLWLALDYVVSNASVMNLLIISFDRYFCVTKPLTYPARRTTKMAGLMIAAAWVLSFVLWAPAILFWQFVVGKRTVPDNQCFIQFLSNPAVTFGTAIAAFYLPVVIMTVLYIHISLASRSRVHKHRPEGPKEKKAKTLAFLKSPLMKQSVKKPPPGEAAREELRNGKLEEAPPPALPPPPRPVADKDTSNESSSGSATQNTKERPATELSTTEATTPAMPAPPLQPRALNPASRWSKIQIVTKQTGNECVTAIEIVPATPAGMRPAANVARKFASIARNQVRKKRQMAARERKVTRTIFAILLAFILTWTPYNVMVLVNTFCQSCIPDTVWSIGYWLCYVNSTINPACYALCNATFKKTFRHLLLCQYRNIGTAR
Protocol: (§1) Chinese hamster ovary (CHO) cells expressing either hM4 or rM4 receptors were frozen in assay ready vials (5×10^6 cells/vial) after bulking-up in culture. The day before an assay, vial(s) were thawed and cells seeded in 384 well white proxiplates at 1000/well for hM4 cells and at 2000/well for rM4 cells, in 10 μL of growth media (Hams/F12 with glutamax and 10% FCS) and incubated overnight at 37° C./5% CO2.
(§2) On the following morning, the growth media was removed by ‘flicking out’ over a bin, patting the inverted plate onto tissue, and then replacing with 10 μL of wash media (Hams/F12 with glutamax and 8 mM HEPES, NB: serum free). Then, the wash media was removed in the same way and replaced with 8 μL/well of the serum free media. Plates were then re-incubated for a further 4 hours at 37° C./5% CO2.
(§3) Compounds for testing were solubilized to 10 mM in DMSO and compound addition plates, consisting of ten-point concentration response curves (CRC) in duplicate points (10 μM top concentration, ½ log dilution series), were prepared by acoustic dispensing and the compound management group.
(§4) After the 4-hour incubation in serum free media, a 4 μL aliquot of the 3× compound solution containing an EC20 of acetylcholine (10 nM final concentration) was added to the cell plate using a 384 well plate to plate transfer. Then, the plate lid was replaced, and the cells incubated for 5 mins at 37° C./5% CO2. Following this final incubation, all cellular processes were stopped by the addition of 4 μL/well of lysis and blocking buffer and plates were incubated for 30 minutes at RT on an orbital shaker (gentle setting). Then, a final addition of 4 μL/well of antibody detection mix, containing both the Europium-Cryptate (donor) and d2 (acceptor) tagged detection components, was added followed by a further 2-hour incubation at RT, and then the plate was read using a TR-FRET (time resolved fluorescence resonance energy transfer) based protocol.

rM4 receptors = molecular target: T2, rM4 receptors (Rattus norvegicus, UniProt P08485); assay: Rat M4 PAM pERK assay; type: cell-based; details: CHO cells expressing rM4; with EC20 of acetylcholine (10 nM final)
T2 construct: expressed in transfected cells; host or cells: CHO cells
T2 sequence (P08485 1-478): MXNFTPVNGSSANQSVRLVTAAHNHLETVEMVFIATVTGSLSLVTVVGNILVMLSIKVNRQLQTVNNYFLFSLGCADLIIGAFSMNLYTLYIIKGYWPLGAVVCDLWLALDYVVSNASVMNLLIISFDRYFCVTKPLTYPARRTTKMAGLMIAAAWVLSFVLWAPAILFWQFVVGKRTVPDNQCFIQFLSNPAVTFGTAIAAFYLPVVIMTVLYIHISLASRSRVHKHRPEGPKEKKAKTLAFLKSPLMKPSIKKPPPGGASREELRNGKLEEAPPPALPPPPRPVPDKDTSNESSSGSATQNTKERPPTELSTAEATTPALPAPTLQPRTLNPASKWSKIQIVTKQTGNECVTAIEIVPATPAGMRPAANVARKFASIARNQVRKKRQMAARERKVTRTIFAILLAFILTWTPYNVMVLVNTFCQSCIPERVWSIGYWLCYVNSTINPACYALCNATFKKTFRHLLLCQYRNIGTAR
Protocol: as §1, §2, §3, §4

human M4 receptor = molecular target: T3, human M4 receptor (Homo sapiens, UniProt P08173); assay: M4 GTPγS PAM assay; type: biochemical; details: membranes of CHO-K1 cells stably expressing human M4; EC20 acetylcholine 40 nM
T3 construct: expressed in transfected cells; host or cells: CHO-K1 cells (membrane preparation)
T3 sequence (P08173 1-479): T1 sequence (P08173 1-479)
Protocol: The M4 GTPγS PAM method was used. Membranes were prepared for GTPgS binding assays from CHO-K1 cells stably expressing human M4 receptor. Briefly, cells were grown in 5-layer cell culture flasks. Cells were washed with 50 mL of PBS and then dissociated with 0.05% trypsin. Dissociated cells were then collected by centrifugation at 650×g for 8 minutes at 4° C. Pellets were washed again in PBS by centrifugation and resuspended in 30 mL of 20 mM HEPES, 10 mM EDTA, pH 7.4. After sitting on ice for 30 min, membranes were collected by centrifugation at 50000×g for 15′ at 4° C., resuspended in 30 mL of 20 mM HEPES, 0.1 mM EDTA, pH 7.4 and collected again by centrifugation. Pellets were then washed twice by centrifugation in 30 mL of 20 mM HEPES, pH 7.4, and stored at −80° C. until the day of the assay. On the day of the assay, pellets were thawed on ice and resuspended in 1 mL of 20 mM HEPES, pH 7.4, 10 mM MgCl2, 100 mM NaCl using dounce homogenization. Membrane protein concentration is determined by BCA protein assay (Promega, Madison, WI) according to Promega guidelines.
On the day of the assay, serial dilutions of test PAM compounds were brought up in assay buffer (20 mM HEPES, 10 mM MgCl2, 100 mM NaCl) at 4× final assay concentration. […] of membrane homogenates (containing […] of membrane protein) were prepared in assay buffer supplemented with GDP at 4× final assay concentration (final assay concentration of GDP is 5 μM for M2 and 0.1 μM for M4) and dispensed into 96 well polypropylene, U-bottom Greiner plates. […] of vehicle or test PAM compound at 4× of final assay concentration diluted in the assay buffer were added to membrane and plates are incubated for 10-15 minutes at room temperature with gentle shaking. Then, […] of EC20 acetylcholine in assay buffer at 4× final assay concentration was added to assay plates (EC20 final assay concentrations was 40 nM for human M4).
Plates were then incubated, with shaking, for an additional 10-15 minutes. 25 mL of 0.4 nM ^35S-GTP (Perkin Elmer, Waltham, MA) in assay buffer was added to assay mixtures. The binding reaction is left on the shaker for 1 hour at room temperature. Membranes in assay reactions were then transferred to GF/C filter plates (Unifilter, Perkin Elmer) and washed three times using a FilterMate Harvester (Perkin Elmer) with cold assay buffer containing no GDP. Filter plates were then dried at 40° C. overnight followed by the addition of […] of Beta Plate Scintillation liquid. Plates are top and bottom sealed before being read on TopCount scintillation counter (Perkin Elmer, Waltham, MA).

SMILES	EC50 (hM4 receptors) [nM]	EC50 (rM4 receptors) [nM]	EC50 (human M4 receptor) [nM]
Cc1c2c(n(C)c(=O)c1C)CN(C(=O)C[C@@H]1C[C@H]1c1ccc(C(F)(F)F)cc1)C2 (relative stereo) [Compound I-18, 1,3,4-Trimethyl-6-([trans-2-(2-(4-(trifluoromethyl)phenyl)cyclopropyl)]acetyl)-1,5,6,7-tetrahydro-2H-pyrrolo[3,4-b]pyridin-2-one]	100 to 500	100 to 500	100 to 500
Cc1cc(=O)n(C)c2c1CN(C(=O)CC1CC1c1ccnc(C(F)(F)F)c1)C2 (single isomer, unassigned) [Compound I-1, 1,4-Dimethyl-6-[trans-(2-(2-(2-(trifluoromethyl)pyridin-4-yl)cyclopropyl)]acetyl)-1,5,6,7-tetrahydro-2H-pyrrolo[3,4-b]pyridin-2-one]	> 2000	–	–
Cc1cc(=O)n(C)c2c1CN(C(=O)CC1CC1c1ccnc(C(F)(F)F)c1)C2 (single isomer, unassigned) [Compound I-2]	< 100	500 to 2000	–
Cc1cc(=O)n(C)c2c1CN(C(=O)CC1CC1c1ccc(C(F)(F)F)nc1)C2 (single isomer, unassigned) [Compound I-4]	> 2000	> 2000	> 2000
Cc1cc(=O)n(C)c2c1CN(C(=O)CC1CC1c1ccc(C(F)(F)F)nc1)C2 (single isomer, unassigned) [Compound I-5]	100 to 500	< 100	500 to 2000
Cc1cc(=O)n(C)c2c1CN(C(=O)CC1CC1c1ccc(C(F)(F)F)cc1)C2 (single isomer, unassigned) [Compound I-6]	> 2000	> 2000	> 2000
Cc1cc(=O)n(C)c2c1CN(C(=O)CC1CC1c1ccc(S(=O)(=O)C(F)(F)F)cc1)C2 (single isomer, unassigned) [Compound I-8]	> 2000	> 2000	–
Cc1cc(=O)n(C)c2c1CN(C(=O)CC1CC1c1ccc(S(=O)(=O)C(F)(F)F)cc1)C2 (single isomer, unassigned) [Compound I-9]	100 to 500	100 to 500	–
Cc1cc(=O)n(C)c2c1CN(C(=O)CC1CC1c1cccc(C3COC3)c1)C2 (single isomer, unassigned) [Compound I-13]	> 2000	> 2000	> 2000
Cc1cc(=O)n(C)c2c1CN(C(=O)CC1CC1c1cccc(C3COC3)c1)C2 (single isomer, unassigned) [Compound I-14]	100 to 500	100 to 500	–
Cc1cc(=O)n(C)c2c1CN(C(=O)CC1CC1c1ccc(C3COC3)cc1)C2 (single isomer, unassigned) [Compound I-16]	> 2000	> 2000	–
Cc1cc(=O)n(C)c2c1CN(C(=O)CC1CC1c1ccc(C3COC3)cc1)C2 (single isomer, unassigned) [Compound I-17]	< 100	100 to 500	–
Cc1c2c(n(C)c(=O)c1C)CN(C(=O)CC1CC1c1ccc(C(F)(F)F)cc1)C2 (single isomer, unassigned) [Compound I-19]	> 2000	> 2000	–
COCCc1ccc(C2CC2CC(=O)N2Cc3c(C)cc(=O)n(C)c3C2)cc1 (centres unmarked) [Compound I-11]	100 to 500	500 to 2000	–
Cc1cc(=O)n(C)c2c1CN(C(=O)CC1CC1c1ccc(C3COC3)cc1)C2 (centres unmarked) [Compound I-15]	100 to 500	500 to 2000	–

Next, values leading:

EC50 (hM4 receptors) [nM]	EC50 (rM4 receptors) [nM]	EC50 (human M4 receptor) [nM]	SMILES
100 to 500	100 to 500	100 to 500	Cc1c2c(n(C)c(=O)c1Cl)CN(C(=O)C[C@@H]1C[C@H]1c1ccc(C(F)(F)F)cc1)C2 (relative stereo) [Compound I-31, 3-Chloro-1,4-dimethyl-6-([trans-2-(2-(4-(trifluoromethyl)phenyl)cyclopropyl)]acetyl)-1,5,6,7-tetrahydro-2H-pyrrolo[3,4-b]pyridin-2-one]
100 to 500	100 to 500	–	Cc1c2c(n(C)c(=O)c1C)CN(C(=O)CC1CC1c1ccc(C(F)(F)F)cc1)C2 (single isomer, unassigned) [Compound I-20]
> 2000	> 2000	500 to 2000	Cc1c2c(n(C)c(=O)c1C)CN(C(=O)CC1CC1c1cc(F)cc(F)c1)C2 (single isomer, unassigned) [Compound I-22]
< 100	< 100	< 100	Cc1c2c(n(C)c(=O)c1C)CN(C(=O)CC1CC1c1cc(F)cc(F)c1)C2 (single isomer, unassigned) [Compound I-23]
500 to 2000	> 2000	100 to 500	Cc1c2c(n(C)c(=O)c1F)CN(C(=O)CC1CC1c1ccc(C(F)(F)F)cc1)C2 (single isomer, unassigned) [Compound I-25, 3-Fluoro-1,4-dimethyl-6-([trans-2-(2-(4-(trifluoromethyl)phenyl)cyclopropyl)]acetyl)-1,5,6,7-tetrahydro-2/I-pyrrolo[3,4-b]pyridin-2-one]
< 100	< 100	< 100	Cc1c2c(n(C)c(=O)c1F)CN(C(=O)CC1CC1c1cc(F)cc(F)c1)C2 (single isomer, unassigned) [Compound I-27]
< 100	< 100	–	Cc1c2c(n(C)c(=O)c1F)CN(C(=O)CC1CC1c1cc(F)cc(F)c1)C2 (single isomer, unassigned) [Compound I-28]
